Reference: US11617726B2, “Method for preventing, treating, or ameliorating a microbial infection” (priority 2018, dated 2023)

Tested on: Acinetobacter baumannii isolates
Test: Antimicrobial susceptibility test, disc diffusion method (CLSI M100-S24)
Assay type: cell-based
Parameters: key to Inhibition zone: “NZ” indicated that no zone of inhibition was observed
Conditions: for Inhibition zone: disc diffusion; for susceptibility category: IP disc
Procedure: A total of 33 non-duplicate, non-consecutive clinical isolates of Multi-Drug Resistant (MDR) Acinetobacter baumannii were collected from burn wards (“AB1-AB33”). Acinetobacter baumannii ATCC BAA 747 and Pseudomonas aeruginosa ATCC 27853 were used as control strains. The isolates were stored at −80° C. in trypticase soy broth containing 20% glycerol.
Antimicrobial susceptibility tests of the collection of isolates were conducted using the disc diffusion method. The experiment was performed according to the recommendations and guidelines of Clinical Laboratory Standard Institutes (CLSI M100-S24; 2014). Clinical and Laboratory Standards Institute (CLSI), “Performance standards for antimicrobial susceptibility testing; twenty-fourth informational supplement,” Document M100-S24, Clinical and Laboratory Standards Institute (CLSI), Wayne, Pa., USA, 2014.
A panel of commercial antibiotic discs (Amoxicillin (AMX), Amoxicillin/clavulanic acid (AMX/CLA), Piperacillin (PIP), Piperacillin/Tazobactam (PIP/TAZ), Ceftazidime (CAZ), Cefotaxime (CTX), Cefepime (FEP), Cefoxitin (FOX), Aztreonam (ATM), Imipenem (IP), Gentamicin (GEN), Amikacin (AK), Neomycin (NEO), Levofloxacin (LEV), Chloramphenicol (CHL), Tetracycline (TET), sulfamethoxazole/trimethoprim (SUL/TRI) was used for susceptibility testing. All commercial antibiotic discs were purchased from BBL (Becton Dickinson, USA).
Forty grams of Mueller-Hinton Agar (MHA) were suspended in 1 Liter distilled water and then boiled to dissolve the powder completely. The medium was sterilized by autoclaving at 121° C. for 15 min. After autoclaving, the medium was cooled to 45° C. and 25 mL of molten agar media was poured into sterile Petri dishes (90 mm diameter) to give a depth of about 4 mm. The surface of the agar was dried to remove excess moisture before use. The plates were stored at 4-8° C. in sealed plastic bags if not used immediately.
The inoculum suspension was prepared by selecting three to five morphologically similar colonies from overnight growth (16-24 h of incubation) on blood agar medium. […] The suspension density was measured using a UV spectrophotometer calibrated with a 0.5 McFarland standard. The density of the suspension was adjusted to McFarland 0.5 by addition of saline or more microorganisms. The adjusted inoculum suspension was used within 60 min of preparation.
A sterile cotton swab was dipped into the bacterial suspension and the excess fluid was removed by turning the swab against the inside wall of the tube to avoid over-inoculation of plates. The inoculum was spread evenly over the entire surface of the agar plate by swabbing in three directions.
The predetermined panel of antimicrobial disks was applied firmly on the inoculated Mueller-Hinton agar surface within 15 min of inoculation of the plates by a disc dispenser device. A maximum of six disks were accommodated on a 90-mm circular plate.
Within 15 min of application of antimicrobial disks, the plates were inverted and incubated aerobically at 35-37° C. for 18-20 h.
After incubation, inhibition zones were measured at the point where no obvious growth is detected by the unaided eye when the plate is held about 30 cm from the eye. Inhibition zone diameters were measured to the nearest millimeter with a ruler. The plates were read from the back of the plate with reflected light against a dark background. Zone diameters were interpreted and categorized as susceptible “S”, intermediate “I”, or resistant “R” according to the CLSI clinical breakpoint tables (see Table 1 and Table 2).

SMILES	Inhibition zone (isolate AB1)	Inhibition zone (isolate AB2)	Inhibition zone (isolate AB3)	Inhibition zone (isolate AB4)	Inhibition zone (isolate AB5)	Inhibition zone (isolate AB6)	Inhibition zone (isolate AB7)	Inhibition zone (isolate AB8)	Inhibition zone (isolate AB9)	Inhibition zone (isolate AB10)	Inhibition zone (isolate AB11)	Inhibition zone (isolate AB12)	Inhibition zone (isolate AB13)	Inhibition zone (isolate AB14)	Inhibition zone (isolate AB15)	Inhibition zone (isolate AB16)	Inhibition zone (isolate AB17)	Inhibition zone (isolate AB18)	Inhibition zone (isolate AB19)	Inhibition zone (isolate AB20)	other results
CO/N=C(\C(=O)N[C@@H]1C(=O)N2C(C(=O)O)=C(COC(C)=O)CS[C@H]12)c1csc(N)n1 [CTX, Cefotaxime]	NZ	NZ	15 mm	8 mm	NZ	17 mm	NZ	NZ	11 mm	NZ	NZ	NZ	NZ	NZ	NZ	32 mm	NZ	NZ	NZ	NZ	Inhibition zone (isolate AB21): NZ; Inhibition zone (isolate AB22): NZ; Inhibition zone (isolate AB23): NZ; Inhibition zone (isolate AB24): NZ; Inhibition zone (isolate AB25): 16 mm; Inhibition zone (isolate AB26): NZ; Inhibition zone (isolate AB27): NZ; Inhibition zone (isolate AB28): NZ; Inhibition zone (isolate AB29): NZ; Inhibition zone (isolate AB30): NZ; Inhibition zone (isolate AB31): 8 mm; Inhibition zone (isolate AB32): 8 mm; Inhibition zone (isolate AB33): 21 mm
CO/N=C(\C(=O)N[C@@H]1C(=O)N2C(C(=O)[O-])=C(C[N+]3(C)CCCC3)CS[C@H]12)c1csc(N)n1 [FEP, Cefepime]	20 mm	16 mm	18 mm	14 mm	7 mm	21 mm	NZ	NZ	22 mm	7 mm	NZ	NZ	NZ	NZ	8 mm	35 mm	11 mm	NZ	NZ	NZ	Inhibition zone (isolate AB21): NZ; Inhibition zone (isolate AB22): NZ; Inhibition zone (isolate AB23): NZ; Inhibition zone (isolate AB24): 7 mm; Inhibition zone (isolate AB25): 10 mm; Inhibition zone (isolate AB26): 14 mm; Inhibition zone (isolate AB27): 8 mm; Inhibition zone (isolate AB28): NZ; Inhibition zone (isolate AB29): NZ; Inhibition zone (isolate AB30): NZ; Inhibition zone (isolate AB31): NZ; Inhibition zone (isolate AB32): NZ; Inhibition zone (isolate AB33): 18 mm
CO[C@@]1(NC(=O)Cc2cccs2)C(=O)N2C(C(=O)O)=C(COC(N)=O)CS[C@@H]21 [FOX, Cefoxitin]	NZ	NZ	NZ	NZ	NZ	NZ	NZ	NZ	NZ	NZ	NZ	NZ	NZ	NZ	NZ	22 mm	NZ	NZ	NZ	NZ	Inhibition zone (isolate AB21): NZ; Inhibition zone (isolate AB22): NZ; Inhibition zone (isolate AB23): NZ; Inhibition zone (isolate AB24): NZ; Inhibition zone (isolate AB25): NZ; Inhibition zone (isolate AB26): NZ; Inhibition zone (isolate AB27): NZ; Inhibition zone (isolate AB28): NZ; Inhibition zone (isolate AB29): NZ; Inhibition zone (isolate AB30): NZ; Inhibition zone (isolate AB31): 9 mm; Inhibition zone (isolate AB32): NZ; Inhibition zone (isolate AB33): NZ
C[C@@H](O)[C@H]1C(=O)N2C(C(=O)O)=C(SCCN=CN)C[C@H]12 [IP, Imipenem]	NZ	NZ	NZ	NZ	8 mm	12 mm	NZ	7 mm	NZ	NZ	NZ	11 mm	9 mm	15 mm	NZ	34 mm	15 mm	NZ	NZ	15 mm	susceptibility category (isolate AB16): S (Sensitive ≥22); Inhibition zone (isolate AB21): NZ; Inhibition zone (isolate AB22): 15 mm; Inhibition zone (isolate AB23): 20 mm; Inhibition zone (isolate AB24): NZ; susceptibility category (isolate AB25): S (Sensitive ≥22); Inhibition zone (isolate AB25): 23 mm; susceptibility category (isolate AB26): S (Sensitive ≥22); Inhibition zone (isolate AB26): 22 mm; Inhibition zone (isolate AB27): 9 mm; Inhibition zone (isolate AB28): 8 mm; Inhibition zone (isolate AB29): 9 mm; Inhibition zone (isolate AB30): 9 mm; Inhibition zone (isolate AB31): 9 mm; Inhibition zone (isolate AB32): 18 mm; Inhibition zone (isolate AB33): NZ
